Key:
[1] = test system: HCT116-MTAP-KO; test: Cell killing in HCT116 isogenic pair (Cell Titer-Glo viability), MTAP knock-out cells; format: cell-based, human; conditions: Homo sapiens, HCT-116, 144 h, 6 days incubation, 0-10 μM, * = more than 50% viability inhibition at tested concentration without a full curve
In short: (§1)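 HCT116 MTAP-knockout or mock-knockout (MTAP wildtype) cells in RPMI 1640 with 10% FBS were seeded overnight, then exposed to test compound at 0–10 μM final for 6 days at 37° C. Viability was measured by CellTiter-Glo luminescence and IC50 was fitted.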

[2] = test system: HCT116-mock-RNA-KO; test: Cell killing in HCT116 isogenic pair (Cell Titer-Glo viability), mock knock-out cells with MTAP wildtype genotype; format: cell-based, human; conditions: Homo sapiens, HCT-116, 144 h, 6 days incubation, 0-10 μM
In short: as §1

SMILES | IC50 [1] [nM] | IC50 [2] [nM]
Nc1nc2cc(C(=O)N(Cc3ncc(C4CC4)cc3F)C3CCC3)[nH]c2c2c1COC2 [Example 69, 5-amino-N-cyclobutyl-N-((5-cyclopropyl-3-fluoropyridin-2-yl)methyl)-6,8-dihydro-1H-furo[3,4-d]pyrrolo[3,2-b]pyridine-2-carboxamide] | 26 | 2700
CC(C)[C@@H](C)N(Cc1ncc(C2CC2)cc1F)C(=O)c1cc2nc(N)c3c(c2[nH]1)COC3 [Example 70, (R)-5-amino-N-((5-cyclopropyl-3-fluoropyridin-2-yl)methyl)-N-(3-methylbutan-2-yl)-6,8-dihydro-1H-furo[3,4-d]pyrrolo[3,2-b]pyridine-2-carboxamide] | 12 | 1180
C[C@H]1OCc2c1c(N)nc1cc(C(=O)N(C)[C@H]3COCc4cc(Br)ccc43)[nH]c21 [Example 71, (R)-5-amino-N—((R)-7-bromoisochroman-4-yl)-N,6-dimethyl-6,8-dihydro-1H-furo[3,4-d]pyrrolo[3,2-b]pyridine-2-carboxamide] | 728 | 6160
C[C@H]1OCc2c1c(N)nc1cc(C(=O)N(C)[C@@H]3COCc4cc(Br)ccc43)[nH]c21 [Example 72, (R)-5-amino-N—((S)-7-bromoisochroman-4-yl)-N,6-dimethyl-6,8-dihydro-1H-furo[3,4-d]pyrrolo[3,2-b]pyridine-2-carboxamide] | 8.2 | 1010
CCN(C(=O)c1cc2nc(N)c3c(c2[nH]1)COC3)[C@@H]1COCc2cc(Cl)ccc21 [Example 73, (S)-5-amino-N-(7-chloroisochroman-4-yl)-N-ethyl-6,8-dihydro-1H-furo[3,4-d]pyrrolo[3,2-b]pyridine-2-carboxamide] | 34 | 2490
CCN(C(=O)c1cc2nc(N)c3c(c2[nH]1)COC3)[C@H]1COCc2cc(Cl)ccc21 [Example 74, (R)-5-amino-N-(7-chloroisochroman-4-yl)-N-ethyl-6,8-dihydro-1H-furo[3,4-d]pyrrolo[3,2-b]pyridine-2-carboxamide] | 1070 | > 10000
CCN(C(=O)c1cc2nc(N)c3c(c2[nH]1)COC3)[C@@H]1COCc2cc(F)cc(F)c21 [Example 75, (S)-5-amino-N-(5,7-difluoroisochroman-4-yl)-N-ethyl-6,8-dihydro-1H-furo[3,4-d]pyrrolo[3,2-b]pyridine-2-carboxamide] | 41 | > 10000
CCN(C(=O)c1cc2nc(N)c3c(c2[nH]1)COC3)[C@H]1COCc2cc(F)cc(F)c21 [Example 76, (R)-5-amino-N-(5,7-difluoroisochroman-4-yl)-N-ethyl-6,8-dihydro-1H-furo[3,4-d]pyrrolo[3,2-b]pyridine-2-carboxamide] | 2110 | > 10000
CCN(C(=O)c1cc2nc(N)c3c(c2[nH]1)COC3)[C@@H]1COc2cc(C(F)(F)F)ccc21 [Example 77, (S)-5-amino-N-ethyl-N-(6-(trifluoromethyl)-2,3-dihydrobenzofuran-3-yl)-6,8-dihydro-1H-furo[3,4-d]pyrrolo[3,2-b]pyridine-2-carboxamide] | 51 | > 10000
C[C@@H]1OC[C@H](N(C)C(=O)c2cc3nc(N)c4c(c3[nH]2)COC4)c2ccc(Br)cc21 [Example 78, 5-amino-N-((1S,4R)-7-bromo-1-methylisochroman-4-yl)-N-methyl-6,8-dihydro-1H-furo[3,4-d]pyrrolo[3,2-b]pyridine-2-carboxamide] | 624 | 2930
C[C@H]1OC[C@H](N(C)C(=O)c2cc3nc(N)c4c(c3[nH]2)COC4)c2ccc(Br)cc21 [Example 79, 5-amino-N-((1R,4R)-7-bromo-1-methylisochroman-4-yl)-N-methyl-6,8-dihydro-1H-furo[3,4-d]pyrrolo[3,2-b]pyridine-2-carboxamide] | 525 | 3280
C[C@@H]1OC[C@@H](N(C)C(=O)c2cc3nc(N)c4c(c3[nH]2)COC4)c2ccc(Br)cc21 [Example 80, 5-amino-N-((1S,4S)-7-bromo-1-methylisochroman-4-yl)-N-methyl-6,8-dihydro-1H-furo[3,4-d]pyrrolo[3,2-b]pyridine-2-carboxamide] | 351 | > 10000
C[C@H]1OC[C@@H](N(C)C(=O)c2cc3nc(N)c4c(c3[nH]2)COC4)c2ccc(Br)cc21 [Example 81, 5-amino-N-((1R,4S)-7-bromo-1-methylisochroman-4-yl)-N-methyl-6,8-dihydro-1H-furo[3,4-d]pyrrolo[3,2-b]pyridine-2-carboxamide] | 9.7 | 1020
CN(C(=O)c1cc2nc(N)c3c(c2[nH]1)COC3)[C@@H]1COCc2cc(C(F)(F)F)cc(F)c21 [Example 82, (S)-5-amino-N-(5-fluoro-7-(trifluoromethyl)isochroman-4-yl)-N-methyl-6,8-dihydro-1H-furo[3,4-d]pyrrolo[3,2-b]pyridine-2-carboxamide] | 13 | 1840
C[C@H]1OC[C@@H](N(C)C(=O)c2cc3nc(N)c4c(c3[nH]2)CO[C@@H]4C)c2ccc(C(F)(F)F)cc21 [Example 83, (R)-5-amino-N,6-dimethyl-N-((1R,4S)-1-methyl-7-(trifluoromethyl)isochroman-4-yl)-6,8-dihydro-1H-furo[3,4-d]pyrrolo[3,2-b]pyridine-2-carboxamide] | 7.2 | 556
CN(C(=O)c1cc2nc(N)c3c(c2[nH]1)COC3)[C@@H]1COCc2cc(I)ccc21 [Example 84, (S)-5-amino-N-(7-iodoisochroman-4-yl)-N-methyl-6,8-dihydro-1H-furo[3,4-d]pyrrolo[3,2-b]pyridine-2-carboxamide] | 10 | 2200
CN(C(=O)c1cc2nc(N)c3c(c2[nH]1)COC3)[C@@H]1COCc2nc(C(F)(F)F)ccc21 [Example 85, (S)-5-amino-N-methyl-N-(2-(trifluoromethyl)-5,8-dihydro-6H-pyrano[3,4-b]pyridin-5-yl)-6,8-dihydro-1H-furo[3,4-d]pyrrolo[3,2-b]pyridine-2-carboxamide] | 113 | > 10000
CN(C(=O)c1cc2nc(N)c3c(c2[nH]1)COC3)[C@H]1COCc2nc(C(F)(F)F)ccc21 [Example 86, (R)-5-amino-N-methyl-N-(2-(trifluoromethyl)-5,8-dihydro-6H-pyrano[3,4-b]pyridin-5-yl)-6,8-dihydro-1H-furo[3,4-d]pyrrolo[3,2-b]pyridine-2-carboxamide] | 1900 | > 10000
CN(C(=O)c1cc2nc(N)c3c(c2[nH]1)COC3)[C@@H]1COCc2nc(C3CC3)ccc21 [Example 87, (S)-5-amino-N-(2-cyclopropyl-5,8-dihydro-6H-pyrano[3,4-b]pyridin-5-yl)-N-methyl-6,8-dihydro-1H-furo[3,4-d]pyrrolo[3,2-b]pyridine-2-carboxamide] | 67 | > 10000
CN(C(=O)c1cc2nc(N)c3c(c2[nH]1)COC3)[C@H]1COCc2nc(C3CC3)ccc21 [Example 88, (R)-5-amino-N-(2-cyclopropyl-5,8-dihydro-6H-pyrano[3,4-b]pyridin-5-yl)-N-methyl-6,8-dihydro-1H-furo[3,4-d]pyrrolo[3,2-b]pyridine-2-carboxamide] | 1410 | > 10000
